In US8240312B2, “Method and means for exerting a phototoxic effect of visible light on microorganisms” (Osnat Feuerstein, priority 2004, dated 2012):

Columns and labels:
P. gingivalis = experiment: Bacterial survival after 20 sec blue light exposure in the presence of scavengers; assay type: cell-based, Porphyromonas gingivalis; settings: P. gingivalis in PBS suspension, halogen lamp, 23 J/cm^2, scavengers 30 to 100 μM, relative to non-exposed control (FIG. 5C)
Procedure: (§1) Bacteria: P. gingivalis, F. nucleatum, S. mutans, S. faecalis, P. gingivalis and F. nucleatum were grown and incubated at 37° C. in an anaerobic jar at <1% O2 and 9-13% CO2. S. mutans and S. faecalis were grown and incubated under aerobic conditions at 37° C. All the strains were sub-cultured twice before exposure to light. The bacterial concentration following 24 h incubation was standardized by dilution with sterile broth to about 5×10^6 cfu.
(§2) Determination of bacterial survival: Following exposure of the bacteria in suspension to light, samples were diluted and applied to the agar plates. Survival of these bacteria were determined, as well as of the duplicates of single bacteria on agar, by counting cfu following incubation. P. gingivalis and F. nucleatum were cultured under anaerobic conditions and S. mutans and S. faecalis under aerobic conditions at 37° C. until bacterial colonies were visible (1-5 days). The percentage of surviving bacteria was calculated in relation to the control non-exposed samples under similar experimental conditions. Biofilm inhibition in the triplicates bacterial lawn samples was defined as a halo without colony growth appearing in the light-exposed areas. All experiments in which the results of the exposed samples differed from those of the control were repeated at least twice. […]

F. nucleatum = experiment: as above; assay type: cell-based, Fusobacterium nucleatum; settings: F. nucleatum in PBS suspension, halogen lamp, 23 J/cm^2, scavengers 30 to 100 μM, relative to non-exposed control (FIG. 5D)
Procedure: as §1, §2

CNC(=S)NC [DMTU, dimethylthiourea]
percent survival of bacteria (P. gingivalis): 48% | percent survival of bacteria (F. nucleatum): 63%
